The values below come from publication PMC11541474, “Toward New Therapeutics for Visceral Leishmaniasis: Efficacy and Mechanism of Action of Amides Inspired by Gibbilimbol B” (ACS Omega, 2024).

The test system of data set [1] is L. (L.) infantum promastigotes. It is filed as cell-based, Leishmania (L.) infantum. An excerpt:
Changes in the plasma membrane integrity of Leishmania spp. can lead to cell death due to pore formation, pH imbalance, and nutrient-transport failure. Initially, the fluorescent probe Sytox Green was employed to analyze the permeability of the plasma membrane. […] Untreated parasites were used as a negative control for normalization (0% permeabilization) whereas the nonionic surfactant Triton X-100 was used for as positive control (100% permeabilization).
Figure 4 Plasma membrane permeability in L. (L.) infantum promastigotes after 4 h of treatment with compound (A) 9 (141.5 μM) or (B) 10 (110.1 μM), using the fluorescent probe Sytox Green (p < 0.0001). Negative control: untreated parasites; positive control: Triton X-100 (TX-100).
Assays for determination of plasma membrane integrity of L. (L.) infantum were conducted as previously reported.[46] Briefly, compounds 9 (141.5 μM) and 10 (110.1 μM) were added to different wells and the resulting fluorescence was measured using a fluorimetric microplate reader (FilterMax F5Multi-Mode, Molecular Devices). Triton X-100 (0.5%, v/v) and untreated parasites were used as positive negative controls, respectively.[47]

The nature of data set [2]: in vitro mammalian toxicity against NCTC cells. The class given is cell-based. The following applies: 50% cytotoxic concentration, read-out: Cc50 Nctc (μm) ± SD. As to the method: Evaluation of in vitro mammalian toxicity against NCTC cells was performed as previously described.[40] The selectivity index was determined using the following equation: CC50 against NCTC cells/EC50 against amastigotes.[44] The CC50 and EC50 values were calculated using sigmoidal dose–response curves using Graph Pad Prism 5.0 software. One-way ANOVA testing with Tukey’s multiple comparison tests were used for evaluation of the statistical significance (p-value) of differences between the samples, which were tested in duplicate and all assays were repeated at least twice.

For data set [3], the system named is L. (L.) infantum intracellular amastigotes. Kind of data set: ex-vivo assay using intracellular amastigotes of L. (L.) infantum. It is filed as cell-based, Leishmania (L.) infantum. The following applies: for S.I. amastigote (selectivity index): CC50 against NCTC cells/EC50 against amastigotes; for EC50: Leishmania infantum, L. (L.) infantum intracellular amastigotes, read-out: Ec50 Amastigote (μm) ± SD. As to the method: (§1) Evaluation of in vitro activity against promastigote and amastigote forms of L. (L.) infantum was performed as previously reported assays.[40]−[43] The CC50 and EC50 values were calculated using sigmoidal dose–response curves using Graph Pad Prism 5.0 software. One-way ANOVA testing with Tukey’s multiple comparison tests were used for evaluation of the statistical significance (p-value) of differences between the samples, which were tested in duplicate and all assays were repeated at least twice.

The test system of data set [4] is L. (L.) infantum promastigotes. The experiment in a line: in vitro activity against promastigote forms of L. (L.) infantum. The class given is cell-based, Leishmania (L.) infantum. The following applies: Leishmania infantum; L. (L.) infantum promastigotes; read-out: Ec50 Promastigote (μm) ± SD. The protocol: as §1
In data set [5] the test system is L. (L.) infantum promastigotes. Kind of data set: intracellular Ca2+ levels, Fura-2 AM. It is filed as cell-based, Leishmania (L.) infantum. Particulars: 9 at 141.5 μM, 10 at 110.1 μM. The text has this: Compounds that affect intracellular Ca^2+ balance in Leishmania may cause changes in the mechanism of transport of these ions in trypanosomatids.[26] In Leishmania spp., Ca^2+ regulation involves the endoplasmic reticulum, the mitochondria, and the acidocalcisomes;[27],[28] increases in this intracellular ion can trigger processes such as apoptosis that led to the death of the parasite.[29] The Fura-2 AM marker was used to measure intracellular Ca^2+ levels in Leishmania (L.) infantum promastigotes. Fura-2 has a high affinity for Ca^2+, which results in the formation of fluorescent intracellular complexes that are proportional to intracellular Ca^2+ levels.[30] […] (Triton X-100) at all monitored times. […] Compound 10 induced similar levels of fluorescence to those induced by compound 9 but at a slower rate, as these levels were observed after 200 min of incubation.  Figure 7 Intracellular Ca^2+ levels in L. (L.) infantum treated with (A) compound 9 (141.5 μM) or (B) compound 10 (110.1 μM). Results were obtained using the Fluo-4 AM dye (excitation and emission at 485 and 535 nm, respectively). Untreated and treated with Triton X-100 (0.5% v/v) parasites were used as negative and positive controls, respectively. Fluorescence is represented as a percentage relative to the untreated control at 0 min (100%).***p < 0.0001. Measurements of intracellular Ca^2+ levels were conducted as previously reported.[49] Briefly, promastigotes were pretreated with Fura-2 AM (Molecular Probes) in PBS, washed and treated with compounds 9 (141.5 μM) or 10 (110.1 μM). Fluorescence was measured using a microplate reader (FilterMax […]-Mode, Molecular Devices) with excitation and emission at 360 and 500 nm, respectively. Untreated and treated parasites (0.5% Triton X-100) were used as negative and positive controls, respectively.

Data set [6] deals with L. (L.) infantum promastigotes. Kind of data set: parasite protein spectral profiling (MALDI-TOF/MS). The class given is cell-based, Leishmania (L.) infantum. Particulars: 9 at 141.5 μM, 10 at 110.1 μM, 24 h incubation. The protocol:
Finally, the protein variations of Leishmania after treatment with compounds 9 and 10 were investigated using MALDI-TOF/MS analysis.[37],[38] […] Panel I. Promastigotes were incubated with compound 9 (141.5 μM), compound 10 (110.1 μM). Miltefosine was used as positive control whereas untreated parasites were used as a negative control. The peaks observed at m/z 6,153 and m/z 7,187 (blue) allow the identification of the Leishmania subgenus. Increases in peak intensity resulting from the incubation of promastigotes with compound 9 or 10 can be observed at m/z 3,081, 5,542, and 11,079 (red). Panel II. A schematic gel showing mass spectra in the m/z 2,000–20,000 range (B, D, F, H); raw spectra are shown in blue (A, C, E, G), whereas spectra generated after normalization, smoothing, and baseline subtraction are shown in red. (A) and (B), results from untreated promastigotes (negative control); (C) and (D); results from promastigotes incubated with compound 9; (E) and (F), results from promastigotes incubated with compound 10; and (G) and (H) results from promastigotes incubated with miltefosine (standard treatment drug and positive control). MALDI-TOF/MS was used to investigate protein changes in stationary-phase L. (L.) infantum promastigotes that were induced by treatment with compound 9 (141.5 μM), compound 10 (110.1 μM), or the standard drug miltefosine. […]

For `CCCCC(CC)CNC(=O)c1ccc(Cl)cc1` (stereo not shown) [Compound 9, N-(2-Ethylhexyl)-4-chlorobenzamide], in data set [1], the “permeabilization of the plasma membrane (Sytox Green)” value is “did not induce permeabilization of the membrane”. Also, the CC50 in data set [2] is over 200 µM. In data set [3], the “S.I. amastigote (selectivity index)” value is on record as over 15.7 and the EC50 is 12.7 ± 4.9 µM. The EC50 in data set [4] came to 41.9 ± 2.1 µM. Further, in data set [5], the “incubation time at which Ca^2+ levels approached those of the positive control (Triton X-100)” value is given as at most 20 min and the “intracellular Ca^2+ concentration compared with untreated parasites” value is given as “increased the intracellular Ca^2+ concentration”. Moreover, the “MALDI-TOF/MS protein spectral profile compared with untreated parasites” value in data set [6] was “increased the intensity of the spectral peaks”.

For `CCCCC(CC)CNC(=O)c1ccc([N+](=O)[O-])cc1` (stereo not shown) [Compound 10, N-(2-Ethylhexyl)-4-nitrobenzamide], in data set [1], the “permeabilization of the plasma membrane (Sytox Green)” value is recorded as “did not induce permeabilization of the membrane”. Also, the CC50 in data set [2] was over 200 µM. In data set [3], the “S.I. amastigote (selectivity index)” value is listed as over 16.4 and the EC50 came to 12.2 ± 7.2 µM. Further, the EC50 in data set [4] was found to be 44.3 ± 0.4 µM. Moreover, in data set [5], the “incubation time at which Ca^2+ levels approached those of the positive control (Triton X-100)” value is 200 min and the “intracellular Ca^2+ concentration compared with untreated parasites” value is “increased the intracellular Ca^2+ concentration”. Besides, the “MALDI-TOF/MS protein spectral profile compared with untreated parasites” value in data set [6] is recorded as “increased the intensity of the spectral peaks”.

Usually CC50 stands for the concentration giving 50% cytotoxicity. Usually EC50 stands for the midpoint of the concentration-response curve.
